{
  "source": "patent EP0474374A1",
  "about": "“Method for treatment of bone wasting diseases using a progestin” (ORTHO PHARMACEUTICAL CORPORATION, priority 1990, dated 1992)",
  "key": {"[1]": {"system": "MC3T3-El osteoblast-line cells", "assay": "Osteoblast cell proliferation (3H-thymidine incorporation into DNA)", "type": "cell-based, mouse", "conditions": "for OSTEOBLAST STIMULATION: ability to stimulate 3H-thymidine incorporation in MC3T3-El osteoblast-line cells, stimulation over control; for osteoblast proliferation and differentiation: summary statement in words, bone forming cells, cell line not named", "procedure": "Only cells undergoing mitosis will synthesize new DNA and thus only these cells will incorporate the radiolabelled DNA specific nucleotide, thymidine. […] The ability of agents to increase osteoblast proliferation and differentiation can be predicted by their action on cultured osteoblast-line cells in vitro. In this test mouse (MC3T3-El), and human (TE-85) osteoblast-line cells were cultured in vitro and the effect of various progestins was tested on osteoblast cell proliferation. Osteoblast cell proliferation was determined by measuring the rate of DNA synthesis, which was quantified by measuring the rate of ³H-thymidine incorporation into DNA.\nFollowing their placement into 96 well culture plates all the osteoblast-line cells, either the MC3T3-El or the TE-85 cell lines, were allowed an additional 24 hours preincubation period in media containing only 0.1% fetal bovine sera. The next day the test compounds were added and screened at concentrations ranging from 10⁻¹⁴ to 10⁻⁶ M depending on the particular study. Twenty hours later a 20 ul aliquot of media containing 0.4 uCi of ³H-thymidine was added to each culture well. The cells were then incubated for an additional 4 hours. The incubation was terminated by aspirating the media and washing with HBSS (Hank's Balanced Salt Solution). The cells were then treated with 100 ul of Trypsin-EDTA (Ethylene Diamine Tetra Acetic Acid) (0.5% trypsin and 5.3 mM EDTA) for 30 minutes at room temperature. The cells were then aspirated onto a glass fiber filter and washed with water. The radioactivity on the filters was quantified by liquid scintillation spectroscopy. The rate of ³H-thymidine incorporation into DNA is then utilized as an index of cell proliferation.\nMouse (MC3T3-El) osteoblast-line cells were cultured in vitro and the effect of various progestins on the ability of the cells to incorporate 3H-thymidine was determined. Osteoblast cell proliferation is determined by measuring the rate of DNA synthesis which was quantified by measuring the rate of ³H-thymidine incorporation into DNA. MC-3T3-El osteoblast-line cells were harvested from large culture flasks where they were allowed to grow to near confluency using Trypsin."}, "[2]": {"molecular_target": "T1, rat prostate androgen cytosolic receptors (Rattus norvegicus, UniProt P15207)", "T1 construct": "the supernatant was used as the cytosolic androgen receptor preparation; from tissue; host or cells: ventral prostate glands of castrated male rats (250-300 g); 105,000 g cytosol supernatant", "T1 sequence (P15207 1-902)": "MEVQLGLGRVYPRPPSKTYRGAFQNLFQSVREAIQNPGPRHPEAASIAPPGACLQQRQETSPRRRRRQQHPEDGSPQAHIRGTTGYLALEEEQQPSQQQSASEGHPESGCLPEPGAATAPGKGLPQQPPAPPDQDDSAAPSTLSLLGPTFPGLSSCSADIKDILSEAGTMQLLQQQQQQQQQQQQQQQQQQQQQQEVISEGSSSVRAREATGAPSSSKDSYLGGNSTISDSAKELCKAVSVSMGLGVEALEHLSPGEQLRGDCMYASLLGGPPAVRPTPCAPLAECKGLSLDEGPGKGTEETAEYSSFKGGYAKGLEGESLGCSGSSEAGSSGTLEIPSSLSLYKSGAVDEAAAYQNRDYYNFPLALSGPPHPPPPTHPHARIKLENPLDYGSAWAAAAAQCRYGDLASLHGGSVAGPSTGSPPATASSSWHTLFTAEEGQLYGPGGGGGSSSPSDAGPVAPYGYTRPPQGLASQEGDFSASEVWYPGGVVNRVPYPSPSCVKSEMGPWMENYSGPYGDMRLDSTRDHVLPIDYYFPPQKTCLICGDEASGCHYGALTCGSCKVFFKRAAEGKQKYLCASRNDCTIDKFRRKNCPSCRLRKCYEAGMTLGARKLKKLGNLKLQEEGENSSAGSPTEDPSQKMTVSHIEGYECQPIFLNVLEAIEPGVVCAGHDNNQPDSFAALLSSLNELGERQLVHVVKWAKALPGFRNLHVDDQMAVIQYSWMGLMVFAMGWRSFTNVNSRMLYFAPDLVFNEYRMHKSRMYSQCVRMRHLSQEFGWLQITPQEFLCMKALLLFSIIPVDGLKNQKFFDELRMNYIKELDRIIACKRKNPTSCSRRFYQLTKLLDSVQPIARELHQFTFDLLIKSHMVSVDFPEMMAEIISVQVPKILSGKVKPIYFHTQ", "assay": "Androgen receptor binding (competitive 3H-DHT displacement)", "conditions": "1 nM 3H-DHT, 24 hours at 4°C; mean + 1 S.E. of 4 determinations in duplicate", "procedure": "The relative binding affinity of other steroids, such as progestins, for androgen receptors can be determined by evaluating their ability to displace ³H-DHT from these rat ventral prostate receptors in vitro. Cytosolic androgen receptors were prepared from ventral prostate glands isolated from castrated male rats (250-300 g). Ventral prostate glands were homogenized and centrifuged at 105,000 g for 60 min at 4°C and the supernatant was used as the cytosolic androgen receptor preparation. […] The relative degree of receptor binding of the test progestin was expressed as percent inhibition of total ³H-DHT binding.\nThe relative binding affinity of other steroids, such as progestins, for androgen receptors is determined by evaluating their ability to displace ³H-DHT from these rat ventral prostate receptors in vitro. Cytosolic androgen receptors were prepared from ventral prostate glands isolated from castrate male rats (250-300 g). Ventral prostate glands were homogenized and centrifuged at 105,000 g for 60 min at 4°C and the supernatant used as the cytosolic androgen receptor preparation. […] The relative degree of receptor binding of the test progestin was expressed as percent inhibition of total ³H-DHT binding.\nRelative androgen receptor binding activity was analyzed in competitive binding assays utilizing 3H-DHT binding for rat prostate androgen cytosolic receptors."}, "[3]": {"system": "TE-85 human osteoblast-line cells", "assay": "Alkaline phosphatase secretion into the media (osteoblast differentiation)", "type": "cell-based", "method": "Osteoblast growth was determined by me: ring the rate of 3H-thymidine incorporation into DNA as in Example #1. Osteoblast differention was estimated by measuring the secretion of skeletal alkaline phosphatase into the media. Skeletal alkaline phosphatase is considered a reliable marker of osteoblast differention and activity. TE-85 human osteoblast-line cells were cultured as described previously in Example #1. […] 3H-Thymidine incorporation into the osteoblast cell DNA and alkaline phosphatase secreted into the media was measured simultaneously (Figure 3 and 4)."}, "[4]": {"system": "T47D breast carcinoma-line cells", "assay": "Breast carcinoma cell proliferation (3H-thymidine incorporation into DNA)", "type": "cell-based, human", "conditions": "0.00001 to 100 nM, result in words", "method": "T47D breast (Human) carcinoma-line cells (American Type Tissue Culture Collection #HTB 133, Rockville, MD) were harvested using Trypsin from large (175 cm²) culture flasks where they were allowed to grow to near confluency. The cells were plated into 96 well culture plates, 1600 cells in 100 ul per well in DMEM with 25 mM Hepes buffer, L-glutamine (584 mg/l); D-glucose (4.5 gm/l) supplemented with 10% fetal bovine sera; penicillin (100 units/ml) and streptomycin (100 mcg/ml); sodium pyruvate (10 uM final concentration). The cells were allowed to plate overnight in DMEM containing 10% fetal bovine sera at 37°C in an atmosphere of 5% CO₂/95% air. Following their placement into 96 well culture plates, the cells were incubated for an additional 24 hour preincubation period in media containing only 0.1% fetal bovine sera. The next day the test compounds were added and screened at concentrations ranging from 10⁻¹⁴ to 10⁻⁶ M depending on the particular study. Twenty hours later a 20 ul aliquot of media containing 0.4 uCi of ³H-thymidine was added to each culture well. The cells were then incubated for an additional 4 hours. […] The radioactivity on the filters was quantified by liquid scintillation spectroscopy. […]\nMC3T3-El cells were cultured as described in Example #1. […] The radioactivity on the filters was quantified by liquid scintillation spectroscopy. […]"}, "[5]": {"system": "TE-85 human osteoblast-line cells", "assay": "Osteoblast cell proliferation (3H-thymidine incorporation into DNA)", "type": "cell-based", "conditions": "TE-85 cells, 0.0001 to 100 nM; result in words", "from_the_text": "The action of select progestins to stimulate osteoblast proliferation can be measured in culture by estimating the rate of DNA synthesis by the rate of 3H-thymidine incorporation into DNA. Only cells undergoing mitosis will synthesize new DNA and thus only these cells will incorporate the radiolabelled DNA specific nucleotide, thymidine. The stimulation of the proliferation and differentiation of bone-forming cells, osteoblasts, is a prerequisite for an increase in bone formation and bone mass. The ability of agents to increase osteoblast proliferation and differentiation can be predicted by their action on cultured osteoblast-line cells in vitro. […] Osteoblast cell proliferation was determined by measuring the rate of DNA synthesis, which was quantified by measuring the rate of ³H-thymidine incorporation into DNA. […]\nMC-3T3-El (cloned by Sudo and Coworkers, Koriyama Japan) and TE85 (American Type Tissue Culture Collection #CRL 1543, Rockville, MD) osteoblast-line cells were harvested from large culture flasks (175 cm²) where they were allowed to grow to near confluency using Trypsin. […] The radioactivity on the filters was quantified by liquid scintillation spectroscopy. […]\nOsteoblast growth was determined by me: ring the rate of 3H-thymidine incorporation into DNA as in Example #1. […]"}, "[6]": {"system": "MC3T3-El osteoblast-line cells", "assay": "Osteoblast cell number by Coulter counting", "type": "cell-based, mouse", "conditions": "0.01 to 100 nM, 5 days, no fetal bovine sera; result in words", "method": "In this study MC3T3-El osteoblast-line cells were cultured into 6 well plates at a density of 50,000 cells/well in 10% fetal bovine sera. The following day media was changed to that containing no fetal bovine sera . The next day some of the cells were harvested by trypsin and counted using a Coulter cell counter. This count was considered as Day 0. […] After 5 days all of the cells were harvested and counted using a Coulter cell counter.\nFigure 2. […] Each striped bar represents the mean and the vertical line l S.E.M. of 6 determinations."}},
  "note": "Entries after “also recorded” stand apart in the source; their conditions may differ.",
  "data": [
    {"smiles": "C#C[C@]1(OC(C)=O)CC[C@H]2[C@@H]3CCC4=CC(=NO)CC[C@@H]4[C@H]3CC[C@@]21CC", "note": "(mixture of isomers) [NORGESTIMATE]", "values": [
      {"measurement": "OSTEOBLAST STIMULATION", "setting": "[1]", "result": "NOT ACTIVE"},
      {"measurement": "osteoblast proliferation and differentiation", "setting": "[1]", "result": "do not stimulate"}
    ]},
    {"smiles": "C#C[C@]1(O)CC[C@H]2[C@@H]3CCC4=CC(=O)CC[C@@H]4[C@H]3C(=C)C[C@@]21CC", "note": "[3-KETO-DESOGESTREL]", "values": [
      {"measurement": "OSTEOBLAST STIMULATION", "setting": "[1]", "result": "NOT ACTIVE"}
    ]},
    {"smiles": "C[C@]12CC[C@H]3[C@@H](CCC4=CC(=O)CC[C@@H]43)[C@@H]1CC[C@@H]2O", "note": "[19-nortestosterone]", "values": [
      {"measurement": "osteoblast proliferation and differentiation", "setting": "[1]", "result": "do not stimulate"}
    ]},
    {"smiles": "C[C@]12CCC(=O)C[C@@H]1CC[C@@H]1[C@@H]2CC[C@]2(C)[C@@H](O)CC[C@@H]12", "note": "[DIHYDROTESTOSTERONE, 5-alpha-dihydrotestosterone]", "values": [
      {"measurement": "OSTEOBLAST STIMULATION", "setting": "[1]", "result": "NOT ACTIVE"}
    ]},
    {"smiles": "C#C[C@]1(O)C=C[C@H]2[C@@H]3CCC4=CC(=O)CC[C@@H]4[C@H]3CC[C@@]21CC", "note": "[GESTODENE]", "values": [
      {"measurement": "IC50", "setting": "[2]", "result": 13, "unit": "nM"},
      {"measurement": "OSTEOBLAST STIMULATION", "setting": "[1]", "result": "NOT ACTIVE"},
      {"measurement": "osteoblast proliferation and differentiation", "setting": "[1]", "result": "do not stimulate"}
    ]},
    {"smiles": "C#C[C@]1(O)CC[C@H]2[C@@H]3CCC4=CC(=O)CC[C@@H]4[C@H]3CC[C@@]21CC", "note": "[LEVONORGESTREL]", "values": [
      {"measurement": "OSTEOBLAST STIMULATION", "setting": "[1]", "result": "NOT ACTIVE"}
    ]},
    {"smiles": "C#C[C@]1(O)CC[C@H]2[C@@H]3CCC4=CC(=O)CC[C@@H]4[C@H]3CC[C@@]21C", "note": "[NORETHINDRONE]", "values": [
      {"measurement": "secretion of alkaline phosphatase", "setting": "[3]; TE-85 cells, 0.0001 to 100 nM, result in words", "result": "increased"},
      {"measurement": "cellular alkaline phosphatase activity in osteoblast-line cells", "setting": "[3]; summary statement in words, cell line not named", "result": "stimulate"},
      {"measurement": "proliferation of breast cell line", "setting": "[4]", "result": "dose-related increase"},
      {"measurement": "3H-thymidine incorporation", "setting": "[5]", "result": "increased"},
      {"measurement": "osteoblast proliferation", "setting": "[1]; MC3T3-El cells, result in words", "result": "does possess osteoblast proliferative action; also recorded: dose-related increase"},
      {"measurement": "OSTEOBLAST STIMULATION", "setting": "[1]", "result": "ACTIVE"},
      {"measurement": "osteoblast proliferation and differentiation", "setting": "[1]", "result": "significantly and reproducibly stimulate"},
      {"measurement": "osteoblast number", "setting": "[6]", "result": "induced an increase in osteoblast number"}
    ]},
    {"smiles": "CC(=O)[C@H]1CC[C@H]2[C@@H]3CCC4=CC(=O)CC[C@]4(C)[C@H]3CC[C@]12C", "note": "[PROGESTERONE]", "values": [
      {"measurement": "OSTEOBLAST STIMULATION", "setting": "[1]", "result": "ACTIVE"},
      {"measurement": "osteoblast proliferation and differentiation", "setting": "[1]", "result": "significantly and reproducibly stimulate"}
    ]},
    {"smiles": "CC(=O)O[C@]1(C(C)=O)CC[C@H]2[C@@H]3C=C(Cl)C4=CC(=O)CC[C@]4(C)[C@H]3CC[C@@]21C", "note": "[chlormadionone acetate]", "values": [
      {"measurement": "osteoblast proliferation and differentiation", "setting": "[1]", "result": "significantly and reproducibly stimulate"}
    ]},
    {"smiles": "CC(=O)O[C@]1(C(C)=O)CC[C@H]2[C@@H]3C=C(Cl)C4=CC(=O)[C@@H]5C[C@@H]5[C@]4(C)[C@H]3CC[C@@]21C", "note": "[cyproterone acetate]", "values": [
      {"measurement": "osteoblast proliferation and differentiation", "setting": "[1]", "result": "do not stimulate"}
    ]},
    {"smiles": "C#C[C@]1(O)CC[C@H]2[C@@H]3CCC4=CCCC[C@@H]4[C@H]3C(=C)C[C@@]21CC", "note": "[desogestrel]", "values": [
      {"measurement": "osteoblast proliferation and differentiation", "setting": "[1]", "result": "do not stimulate"}
    ]},
    {"smiles": "CC(=O)O[C@]1(C(C)=O)CC[C@H]2[C@@H]3C[C@H](C)C4=CC(=O)CC[C@]4(C)[C@H]3CC[C@@]21C", "note": "[medroxyprogesterone acetate]", "values": [
      {"measurement": "osteoblast proliferation and differentiation", "setting": "[1]", "result": "significantly and reproducibly stimulate"}
    ]},
    {"smiles": "CC(=O)O[C@]1(C(C)=O)CC[C@H]2[C@@H]3C=C(C)C4=CC(=O)CC[C@]4(C)[C@H]3CC[C@@]21C", "note": "[megestrol acetate]", "values": [
      {"measurement": "osteoblast proliferation and differentiation", "setting": "[1]", "result": "significantly and reproducibly stimulate"}
    ]},
    {"smiles": "C#C[C@]1(OC(C)=O)CC[C@H]2[C@@H]3CCC4=CC(=O)CC[C@@H]4[C@H]3CC[C@@]21C", "note": "[norethindrone acetate]", "values": [
      {"measurement": "osteoblast proliferation and differentiation", "setting": "[1]", "result": "significantly and reproducibly stimulate"}
    ]},
    {"smiles": "C#C[C@]1(O)CC[C@H]2[C@@H]3CCC4=C(CCC(=O)C4)[C@H]3CC[C@@]21C", "note": "[norethynodrel]", "values": [
      {"measurement": "osteoblast proliferation and differentiation", "setting": "[1]", "result": "significantly and reproducibly stimulate"}
    ]}
  ]
}
